Data taken from article PMC8397403, “Physiologically Based Pharmacokinetic Modeling of Transporter-Mediated Hepatic Disposition of Imaging Biomarker Gadoxetate in Rats” (Molecular Pharmaceutics, 2021).
Where two headings read alike, the source gives them in different places.

Tested on: plated rat hepatocytes
Assay: In vitro uptake kinetics of gadoxetate in plated rat hepatocytes (mechanistic hepatocyte model)
Type: in vitro ADME
Settings: for % passive: CLpassive,u/(CLactive,u + CLpassive,u); for CLactive,u: Vmax/Km,u; for Km: read-out: Km,u
Experimental: Male adult Sprague-Dawley rats (Charles River, Margate, Kent, UK) were housed in groups of two in individually ventilated cages with free access to food (Chow rat and mouse diet) and fresh drinking water. The designated rat housing facility maintained a controlled temperature (20 ± 3 °C), humidity (40–70%), and 12 h light/dark cycle conditions. All animal protocols were approved by the University of Manchester review committee and adhered to the UK Home Office Animals (Scientific Procedures) Act (1986). Rats (250–300 g) were sacrificed using CO2 overdose followed by cervical dislocation in the morning of the study day. The kinetics experiment, as described below, was performed using n = 4 animals. A minimum of n = 3 was required to explore interanimal variability in kinetic parameters, with surplus hepatocytes also used from an additional animal that was part of a separate project. Primary rat hepatocytes, prepared as described below, were used to evaluate test compound cytotoxicity/effect on hepatocyte attachment (n = 3), preliminary assays to determine uptake assay conditions (n = 4), and for assays that were failed, for example, poor cell viability (n = 6 animals).
Isolation of hepatocytes using ex vivo collagenase perfusion was performed, followed by cell count and viability assessment, as previously described.[34]−[36] Cell preparations with viability <85% were not used for experiments. Hepatocytes were seeded at 240,000 cells per well in collagen I-coated 24-well plates, and incubated for at least 2 h at 37 °C and 95% air/5% CO2 to allow cell attachment to the plate.[36]
Uptake experiments were performed at 37 °C with duplicate incubations per condition, as previously described.[35] Uptake of gadoxetate (Primovist injection solution, Bayer, Germany) was evaluated following incubation (0.5–150 min) at nominal media concentrations of 0.01–10 mM. Extended incubation timepoints (up to 150 min) were selected based on previous publications[35] and existing in-house data to enable characterization of the steady-state intracellular concentration. Uptake of pitavastatin (Sequoia Research Products Ltd, Pangbourne, UK) (0.2 μM) in the absence and presence of a pan-inhibitor of uptake transporters, rifamycin SV (Sigma-Aldrich, Poole, UK) (100 μM), was also evaluated for 0.5–2 min as positive control for functional transporter activity. Following sample preparation including addition of internal standard (Table S1), gadoxetate and pitavastatin in cell samples, and gadoxetate in media samples, were quantified by liquid chromatography–tandem mass spectrometry (LC–MS/MS). LC–MS/MS quantification was performed using selective reaction monitoring (SRM) against calibration standards; only standards within 30% of nominal concentration were included. The protein content of plated rat hepatocytes was measured using the Pierce BCA Protein Assay Kit (Thermo Fisher Scientific, Paisley, UK).
In vitro hepatocyte uptake (i.e., the amount of gadoxetate in cell as quantified by LC–MS/MS) (pmol) at each time point was normalized for cellularity using the measured protein content and assuming that 10^6 hepatocytes contain 1 mg protein.[34] For gadoxetate, the data from each animal were used for simultaneous estimation of in vitro kinetic parameters using a mechanistic hepatocyte model reported previously.[35] It should be noted that CLpassive,u implies nonsaturable clearance equal in both directions under experimental conditions (0.01–10 mM). [drawing 1] 1 where Km,u represents the unbound Michaelis constant (μM); Vmax the maximum transport rate (pmol/min/10^6 cells); and fu,cell the fraction unbound in cell and nonsaturable, bidirectional clearance (CLpassive,u; μL/min/10^6 cells). ccell and cmedium represent concentrations in cell and medium compartments, respectively, and Vcell represents the cell volume.
Intracellular concentrations were calculated assuming a hepatocyte cell volume of 3.9 μL/10^6 cells.[35] […]

maximum % active (CLactive,u/(CLactive,u + CLpassive,u), animal 1): 97% | maximum % active (CLactive,u/(CLactive,u + CLpassive,u), animal 2): 94% | maximum % active (CLactive,u/(CLactive,u + CLpassive,u), animal 3): 91% | maximum % active (CLactive,u/(CLactive,u + CLpassive,u), animal 4): 94% | % passive (animal 1): 3% | % passive (animal 2): 6% | % passive (animal 3): 9% | % passive (animal 4): 6% | % passive (average of n = 4 animals): 6% | CLactive,u (animal 1): 3.07 μL/min/10^6 cells | CLactive,u (animal 2): 3.20 μL/min/10^6 cells | CLactive,u (animal 3): 2.78 μL/min/10^6 cells | CLactive,u (animal 4): 3.20 μL/min/10^6 cells | CLactive,u (average of n = 4 animals): 3.06 μL/min/10^6 cells | CLpassive,u (animal 1): 0.091 μL/min/10^6 cells | Km (animal 1): 114 µM | CLpassive,u (animal 2): 0.202 μL/min/10^6 cells | Km (animal 2): 116 µM | CLpassive,u (animal 3): 0.274 μL/min/10^6 cells | Km (animal 3): 79.8 µM | CLpassive,u (animal 4): 0.203 μL/min/10^6 cells | Km (animal 4): 115 µM | CLpassive,u (average of n = 4 animals): 0.193 μL/min/10^6 cells | Km (average of n = 4 animals (CV %)): 106 µM | maximum % active (contribution of active saturable uptake to total uptake, average of n = 4 animals): 94% | fu,liv,cell (fraction unbound in cell (fu,cell), average of n = 4 animals (CV %)): 0.648 | fu,liv,cell (fraction unbound in cell (fu,cell), average of n = 4 animals (CV %), listed as Gadoxetate): 0.65 (24%) | fu,liv,cell (fraction unbound in cell, animal 1): 0.759 | fu,liv,cell (fraction unbound in cell, animal 2): 0.709 | fu,liv,cell (fraction unbound in cell, animal 3): 0.418 | fu,liv,cell (fraction unbound in cell, animal 4): 0.704
Compound: CCOc1ccc(C[C@@H](CN(CCN(CC(=O)[O-])CC(=O)[O-])CC(=O)[O-])N(CC(=O)[O-])CC(=O)[O-])cc1.[Gd+3].[H+].[H+] [gadoxetate]
Vmax (animal 1): 350.4 pmol/min/10^6 cells | Vmax (animal 2): 370.9 pmol/min/10^6 cells | Vmax (animal 3): 221.7 pmol/min/10^6 cells | Vmax (animal 4): 368.8 pmol/min/10^6 cells | Vmax (average of n = 4 animals): 327.95 pmol/min/10^6 cells
